The source made the active and inactive calls. The rule behind the calls is not given here.
Columns and labels:
[1] = molecular target: T1, Serine protease HTRA2, mitochondrial (Homo sapiens) (UniProt O43464); assay: Inhibition of MBP-fused Omi/HtrA2 (134 to 458 residues) (unknown origin) expressed in TB1 Escherichia coli at 20 to 100 uM pre-incubated for 15 mins before FITC-labeled dephosphorylated casein substrate addition and measured every 5 mins for 30 mins by fluorescence assay
T1 sequence (whole entry): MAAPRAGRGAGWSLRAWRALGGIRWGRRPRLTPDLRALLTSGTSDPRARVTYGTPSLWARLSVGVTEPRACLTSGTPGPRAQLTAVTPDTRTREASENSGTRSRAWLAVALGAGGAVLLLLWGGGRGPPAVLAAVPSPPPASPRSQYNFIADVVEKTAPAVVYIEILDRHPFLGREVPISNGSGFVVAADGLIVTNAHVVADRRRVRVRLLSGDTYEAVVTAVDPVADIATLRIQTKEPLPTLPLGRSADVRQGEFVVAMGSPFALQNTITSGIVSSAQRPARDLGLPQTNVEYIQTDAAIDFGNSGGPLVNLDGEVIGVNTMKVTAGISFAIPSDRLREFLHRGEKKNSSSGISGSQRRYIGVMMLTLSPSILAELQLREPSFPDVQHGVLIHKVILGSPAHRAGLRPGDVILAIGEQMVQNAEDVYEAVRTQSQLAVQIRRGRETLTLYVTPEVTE

[2] = molecular target: T1, Serine protease HTRA2, mitochondrial (Homo sapiens); assay: Irreversible inhibition of MBP-fused Omi/HtrA2 (134 to 458 residues) (unknown origin) expressed in TB1 Escherichia coli at 20 to 100 uM pre-incubated for 40 mins to 1 hr before FITC-labeled dephosphorylated casein substrate addition and measured every 5 mins for 30 mins by fluorescence assay
[3] = molecular target: T1, Serine protease HTRA2, mitochondrial (Homo sapiens); assay: Inhibition of MBP-fused Omi/HtrA2 (134 to 458 residues) (unknown origin) expressed in TB1 Escherichia coli at 20 uM pre-incubated for 15 mins before FITC-labeled dephosphorylated casein substrate addition and measured every 5 mins for 30 mins by fluorescence assay relative to control
[4] = molecular target: T1, Serine protease HTRA2, mitochondrial (Homo sapiens)
[5] = molecular target: T1, Serine protease HTRA2, mitochondrial (Homo sapiens); assay: Inhibition of MBP-fused Omi/HtrA2 (134 to 458 residues) (unknown origin) expressed in TB1 Escherichia coli at 10 uM pre-incubated for 15 mins before higher 2 times FITC-labeled dephosphorylated casein substrate addition and measured every 5 mins for 30 mins by fluorescence assay
[6] = molecular target: T1, Serine protease HTRA2, mitochondrial (Homo sapiens); assay: Inhibition of His-tagged Omi/HtrA2 (134 to 458 residues) (unknown origin) expressed in TB1 Escherichia coli at 10 to 100 uM pre-incubated for 10 mins before un-labeled beta-casein substrate addition and measured after 30 mins by Coomassie blue staining based SDS-PAGE analysis
[7] = molecular target: T1, Serine protease HTRA2, mitochondrial (Homo sapiens); assay: Inhibition of His-tagged Omi/HtrA2 (134 to 458 residues) (unknown origin) expressed in TB1 Escherichia coli at 80 uM pre-incubated for 10 mins before un-labeled beta-casein substrate addition and measured after 30 mins by Coomassie blue staining based SDS-PAGE analysis
[8] = molecular target: T1, Serine protease HTRA2, mitochondrial (Homo sapiens); assay: Inhibition of His-tagged Omi/HtrA2 (134 to 458 residues) (unknown origin) expressed in TB1 Escherichia coli at 10 to 50 uM pre-incubated for 15 mins before FITC-labeled dephosphorylated casein substrate addition and measured every 5 mins for 30 mins by fluorescence assay
[9] = molecular target: Serine protease HTRA1 (Homo sapiens) (UniProt Q92743); assay: Inhibition of His-tagged L56/HtrA1 (140 to 480 residues) (unknown origin) expressed in TB1 Escherichia coli at 10 to 50 uM pre-incubated for 15 mins before FITC-labeled dephosphorylated casein substrate addition and measured every 5 mins for 30 mins by fluorescence assay
Serine protease HTRA1 (Homo sapiens), sequence (Q92743 whole entry, the tested form may be a part): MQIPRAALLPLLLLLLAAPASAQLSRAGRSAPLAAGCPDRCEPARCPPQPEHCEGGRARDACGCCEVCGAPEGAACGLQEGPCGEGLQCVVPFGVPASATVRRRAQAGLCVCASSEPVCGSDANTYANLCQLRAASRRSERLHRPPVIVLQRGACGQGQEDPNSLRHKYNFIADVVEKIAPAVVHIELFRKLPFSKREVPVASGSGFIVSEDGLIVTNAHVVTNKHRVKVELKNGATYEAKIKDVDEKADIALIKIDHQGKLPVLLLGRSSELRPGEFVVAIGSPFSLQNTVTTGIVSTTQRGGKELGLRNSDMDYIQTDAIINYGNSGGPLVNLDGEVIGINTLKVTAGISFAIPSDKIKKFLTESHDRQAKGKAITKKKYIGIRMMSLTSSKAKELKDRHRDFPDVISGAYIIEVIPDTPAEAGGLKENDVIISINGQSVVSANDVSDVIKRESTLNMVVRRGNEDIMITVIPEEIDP

[10] = Inhibition of canine F10a using fluorogenic substrate incubated for 20 mins by fluorescence based assay; set-up: species or system Canis lupus familiaris
[11] = Inhibition of bovine trypsin incubated for 20 mins by fluorescence based assay; set-up: species or system Bos taurus
Fibroblast [12] = format: cell-based; conditions: mouse, 36 h, 25 µM
Fibroblast [13] = format: cell-based; conditions: mouse, 36 h
[14] = Drug localization in cytoplasm of human HeLa cells at 20 to 50 uM incubated for 2 hrs by confocal laser-scanning microscopy; format: ADME, subcellular
Fibroblast [15] = format: cell-based; conditions: mouse, 36 h, 25 µM; remark: listed apart in the source
Canis lupus familiaris = organism: Canis lupus familiaris; assay: Inhibition of cisplatin-induced apoptosis in dog MPT cells at 20 to 50 uM pre-incubated for 20 mins before cisplatin challenge for 6 hrs by annexin-V staining based flow cytometry; format: functional, cell-based

Row | SMILES | inhibition [1] | inhibition [2] | inhibition [3] [%] | inhibition [4] [%] | inhibition [5] | inhibition [6] | inhibition [7] [%] | inhibition [8] | inhibition [9] | IC50 [10] [µM] | IC50 [11] [µM] | Activity (Fibroblast [12]) | Activity (Fibroblast [13]) | Drug uptake [14] | Activity (Fibroblast [15]) | inhibition (Canis lupus familiaris)
1 | O=C(O)c1cccc(-c2ccc(C=C3C(=O)N(c4ccccc4)C(=S)N(c4ccccc4)C3=O)o2)c1 | Active | inactive | – | – | – | – | – | – | – | – | – | – | – | – | – | –
2 | Cc1ccc([N+](=O)[O-])cc1-c1ccc(C=C2C(=O)N(c3ccccc3)C(=S)N(c3ccccc3)C2=O)o1 | Active | inactive | 58 | – | – | – | – | – | – | – | – | – | – | – | – | –
3 | COc1ccc(-c2ccc(C=C3C(=O)N(c4ccccc4)C(=S)N(c4ccccc4)C3=O)o2)cc1Cl | Active | inactive | – | – | – | – | – | – | – | – | – | – | – | – | – | –
4 | Cc1cccc([N+](=O)[O-])c1-c1ccc(C=C2C(=O)N(c3ccccc3)C(=S)N(c3ccccc3)C2=O)o1 | Active | inactive | > 78 | < 40 | inactive | Dose-dependent effect | 100 | inactive | Active | 360 to 430 | > 500 | Non-Toxic | Non-Toxic | Active | Non-Toxic | Dose-dependent effect

— ChEMBL document CHEMBL4482313, “Method and compounds for inhibition of cell death” (2012)
